For four molecules, LC retention time results are on record in the RepoRT retention time repository (doi:10.1016/j.foodchem.2021.129757).

The first data set in a line: RP, Agilent ZORBAX Eclipse XDB-C18, 100 × 2.1 mm, 1.8 µm, 50 °C, 0.4 mL/min, estimated dead time 0.55 min; A: water + 0.1% formic acid, pH 3; B: methanol + 0.1% formic acid, pH 3; gradient (min/%B) 0/2 10/100 14.5/100 14.51/2 16.5/2. Particulars: stereoisomer not certain.
Take `O=C(O)CNC(=O)c1ccccc1` [Hippuric acid]: the LC retention time is 3.29 min.

A further data set can be described thus: RP, Waters ACQUITY UPLC BEH C18, 100 × 2.1 mm, 1.7 µm, 65 °C, 0.4 mL/min, estimated dead time 0.55 min; A: water + 0.1% formic acid, pH 3; B: 80% acetonitrile + 20% acetone + 0.1% formic acid, pH 3; gradient (min/%B) 0/0 5/100 5.5/0 6/0. Particulars: stereoisomer not certain.
In the case of `COc1cc(C(=O)O)ccc1O` [Vanillic acid], the LC retention time is 1.8 min.
Same read-out and setting: in the case of `O=C(O)C=Cc1ccc(O)cc1` [p-Coumaric acid] it was 1.99 min; in that of `O=C(O)c1ccc(O)c(O)c1` [Protocatechuic acid], 1.48 min; in that of `O=C(O)CNC(=O)c1ccccc1` [Hippuric acid], 1.86 min.

The next data set in a line: RP, Waters ACQUITY UPLC BEH Shield RP18, 100 × 2.1 mm, 1.7 µm, 30 °C, 0.6 mL/min, estimated dead time 0.37 min; A: water + 0.1% formic acid, pH 3; B: acetonitrile + 0.1% formic acid, pH 3; gradient (min/%B) 0/0 2/0 7/10 22/95 22.1/0 26/0. Particulars: stereoisomer not certain.
In the case of `COc1cc(C(=O)O)ccc1O` [Vanillic acid], the LC retention time is 9.67 min.
The same measure, in the same setting: in the case of `O=C(O)C=Cc1ccc(O)cc1` [p-Coumaric acid] it was 12.3 min.
The same measure, in the same setting: in the case of `O=C(O)c1ccc(O)c(O)c1` [Protocatechuic acid] it was 5.2 min; in that of `O=C(O)CNC(=O)c1ccccc1` [Hippuric acid], 6.13 min.

A further data set can be described thus: RP, Waters ACQUITY UPLC BEH Shield RP18, 150 × 2.1 mm, 1.7 µm, 40 °C, 0.4 mL/min, estimated dead time 0.83 min; A: water + 0.1% formic acid, pH 3; B: acetonitrile + 0.1% formic acid, pH 3; gradient (min/%B) 0/0 30/50 31/100 37/100 37.1/0. Particulars: stereoisomer not certain.
In the case of `COc1cc(C(=O)O)ccc1O` [Vanillic acid], the LC retention time is 6.96 min.
The same measure, in the same setting: in the case of `O=C(O)C=Cc1ccc(O)cc1` [p-Coumaric acid] it was 10.8 min; in that of `O=C(O)c1ccc(O)c(O)c1` [Protocatechuic acid], 4.01 min; in that of `O=C(O)CNC(=O)c1ccccc1` [Hippuric acid], 5.38 min.

A further data set is described as follows: RP, Agilent ZORBAX RRHD Eclipse Plus C18, 50 × 2.1 mm, 1.8 µm, 30 °C, 0.4 mL/min, estimated dead time 0.28 min; A: water + 0.1% formic acid, pH 3; B: acetonitrile + 0.1% formic acid, pH 3; gradient (min/%B) 0/1 5/10 8/25 9.1/99 10/99 12/1. Particulars: stereoisomer not certain.
In the case of `COc1cc(C(=O)O)ccc1O` [Vanillic acid], the LC retention time is 4.25 min.
Same read-out and setting: the figure for `O=C(O)C=Cc1ccc(O)cc1` [p-Coumaric acid] is 6.97 min; for `O=C(O)c1ccc(O)c(O)c1` [Protocatechuic acid] it is 2.12 min.
Same read-out and setting: the figure for `O=C(O)CNC(=O)c1ccccc1` [Hippuric acid] is 4.73 min.

The nature of a further data set: RP, Agilent ZORBAX RRHD Eclipse Plus C18, 50 × 2.1 mm, 1.8 µm, 30 °C, 0.4 mL/min, estimated dead time 0.28 min; A: water + 0.1% formic acid, pH 3; B: acetonitrile + 0.1% formic acid, pH 3; gradient (min/%B) 0/1 5/10 8/25 9.1/99 10/99 12/99. Particulars: stereoisomer not certain.
Take `COc1cc(C(=O)O)ccc1O` [Vanillic acid]: the LC retention time was 1.83 min.
As for `O=C(O)C=Cc1ccc(O)cc1` [p-Coumaric acid], the LC retention time is 6.96 min.
For the molecule `O=C(O)c1ccc(O)c(O)c1` [Protocatechuic acid], the LC retention time is 1.38 min.
Still for that read-out and setting: in the case of `O=C(O)CNC(=O)c1ccccc1` [Hippuric acid] it was 3.49 min.

The nature of another data set: RP, Merck Supelco SUPELCOSIL LC-C18, 250 × 4.6 mm, 5 µm, 40 °C, 1 mL/min, estimated dead time 2.6 min; A: water + 0.1% trifluoroacetic acid, pH 2; B: acetonitrile + 0.1% trifluoroacetic acid, pH 2; gradient (min/%B) 0/5 45/35 47/75 49/35 50/5. Particulars: stereoisomer not certain.
Take `COc1cc(C(=O)O)ccc1O` [Vanillic acid]: the LC retention time is 13.7 min.
Still for that read-out and setting: the figure for `O=C(O)C=Cc1ccc(O)cc1` [p-Coumaric acid] is 19 min.
Still for that read-out and setting: in the case of `O=C(O)c1ccc(O)c(O)c1` [Protocatechuic acid] it was 7.9 min.

The nature of another data set: RP, Agilent InfinityLab Poroshell 120 EC-C18, 100 × 3 mm, 2.7 µm, 25 °C, 0.4 mL/min, estimated dead time 1.1 min; A: water + 0.1% formic acid, pH 3; B: acetonitrile + 0.1% formic acid, pH 3; gradient (min/%B) 0/5 10/25 20/40 24/90 25/90 26/5 30/5. Particulars: stereoisomer not certain.
With `COc1cc(C(=O)O)ccc1O` [Vanillic acid], the LC retention time is 6.3 min.
Take `O=C(O)C=Cc1ccc(O)cc1` [p-Coumaric acid]: the LC retention time was 8.4 min.
Still for that read-out and setting: the figure for `O=C(O)c1ccc(O)c(O)c1` [Protocatechuic acid] is 3.96 min; for `O=C(O)CNC(=O)c1ccccc1` [Hippuric acid] it is 6.09 min.

The next data set in a line: RP, Phenomenex Synergi Hydro-RP, 250 × 2 mm, 4 µm, 25 °C, 0.2 mL/min, estimated dead time 2.5 min; A: water + 0.1% formic acid, pH 3; B: acetonitrile + 0.1% formic acid, pH 3; gradient (min/%B) 0/0.5 7/0.5 12/12.5 25/16.3 47/35 48/65 50/65 50.1/0.5. Particulars: stereoisomer not certain.
Regarding `COc1cc(C(=O)O)ccc1O` [Vanillic acid], the LC retention time was 22.1 min.
`O=C(O)C=Cc1ccc(O)cc1` [p-Coumaric acid]: the LC retention time is 30.1 min.
In the case of `O=C(O)c1ccc(O)c(O)c1` [Protocatechuic acid], the LC retention time is 16.4 min.
Same read-out and setting: the figure for `O=C(O)CNC(=O)c1ccccc1` [Hippuric acid] is 20.2 min.

A short description of a further data set: RP, Waters Atlantis T3, 100 × 2.1 mm, 3 µm, 40 °C, 0.3 mL/min, estimated dead time 0.73 min; A: water + 0.1% trifluoroacetic acid, pH 2; B: acetonitrile + 0.1% trifluoroacetic acid, pH 2; gradient (min/%B) 0/10 1/10 6/40 7/50 8/50 14/70 16/80 20/10 25/10. Particulars: stereoisomer not certain.
On to `COc1cc(C(=O)O)ccc1O` [Vanillic acid], for which the LC retention time was 10 min.
Same read-out and setting: in the case of `O=C(O)C=Cc1ccc(O)cc1` [p-Coumaric acid] it was 6.73 min; in that of `O=C(O)c1ccc(O)c(O)c1` [Protocatechuic acid], 2.23 min.

The next data set in a line: Other, Phenomenex Kinetex PFP, 100 × 4.6 mm, 2.6 µm, 35 °C, 1.5 mL/min, estimated dead time 0.71 min; A: water + 0.1% trifluoroacetic acid, pH 2; B: acetonitrile + 0.1% trifluoroacetic acid, pH 2; gradient (min/%B) 0/1 7/7.5 14/7.6 17/10 18.5/12 20/12.5 24/30 25/90 25.1/1 32/1. Particulars: stereoisomer not certain.
With `COc1cc(C(=O)O)ccc1O` [Vanillic acid], the LC retention time was 9.34 min.
Still for that read-out and setting: the figure for `O=C(O)C=Cc1ccc(O)cc1` [p-Coumaric acid] is 17.6 min.
The same measure, in the same setting: the figure for `O=C(O)c1ccc(O)c(O)c1` [Protocatechuic acid] is 4.92 min.
For the molecule `O=C(O)CNC(=O)c1ccccc1` [Hippuric acid], the LC retention time was 7.15 min.
